Measured values published in US9434763B2, “Derivatives of pyridinone as inhibitors for tissue transglutaminase” (ZEDIRA GMBH, priority 2012, dated 2016).
pIC50: −log10 of the molar value.

How the values were obtained:
Format in all cases: biochemical
[1] = target: T1, tissue transglutaminase (TG2) (Homo sapiens, UniProt P21980); assay: Comparative transglutaminase selectivity assay with casein and dansylcadaverine as substrates (kit T036): TG2; settings: casein as substrate (apparent IC50)
T1 construct: purchased Zedira T036 (kit)
T1 sequence (P21980 1-687): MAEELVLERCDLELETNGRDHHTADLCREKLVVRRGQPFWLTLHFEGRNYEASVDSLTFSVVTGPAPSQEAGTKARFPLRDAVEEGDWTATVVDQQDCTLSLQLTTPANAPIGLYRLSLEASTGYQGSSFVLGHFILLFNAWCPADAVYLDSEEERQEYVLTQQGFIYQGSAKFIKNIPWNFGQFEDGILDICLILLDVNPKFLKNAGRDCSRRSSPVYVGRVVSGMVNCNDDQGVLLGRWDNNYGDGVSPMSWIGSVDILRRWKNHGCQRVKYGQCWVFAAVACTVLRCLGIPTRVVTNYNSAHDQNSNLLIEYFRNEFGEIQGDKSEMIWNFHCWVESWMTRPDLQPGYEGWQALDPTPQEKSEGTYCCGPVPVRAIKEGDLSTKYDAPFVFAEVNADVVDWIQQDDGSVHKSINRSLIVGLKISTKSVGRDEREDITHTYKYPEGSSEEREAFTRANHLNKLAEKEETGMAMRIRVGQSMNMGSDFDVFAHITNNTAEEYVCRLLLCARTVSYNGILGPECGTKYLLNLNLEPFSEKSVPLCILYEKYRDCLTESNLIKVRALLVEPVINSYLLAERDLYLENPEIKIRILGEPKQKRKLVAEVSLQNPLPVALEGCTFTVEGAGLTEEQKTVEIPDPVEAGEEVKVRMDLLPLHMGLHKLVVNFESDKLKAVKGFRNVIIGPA
Source text: (§1) The comparative determination of different transglutaminases to determine the selectivity was made with casein and dansylcadaverine as substrates. Therefore, the kit T036 (Zedira, Darmstadt; Refs: Lorand et al, Anal Biochem, 1971, 44:221-31) as well as transglutaminase products T009 (transglutaminase 1), T012 (transglutaminase 3), T021 (transglutaminase 6) and T027 (plasma transglutaminase, factor XIII) are used. Therefore, two different IC50 values for the compounds are given.
(§2) The evaluation of the resulting enzyme activity is done using the slope of the straight line obtained by the increase in fluorescence.
(§3) To determine the non-inhibited enzyme activity, DMSO instead of inhibitor stock solution is used. IC50 values are determined by plotting the resulting enzyme activity against the logarithm of the inhibitor concentration. IC50 is defined as the concentration of inhibitor resulting in 50% of enzyme activity.
(§4) It should be noted that it was measured here against casein as substrate, which is why other apparent inhibition values (IC50 value) result.

TG6 (transglutaminase 6) = target: T2, TG6 (transglutaminase 6) (Homo sapiens, UniProt O95932); assay: Comparative transglutaminase selectivity assay with casein and dansylcadaverine as substrates: TG6; settings: casein as substrate
T2 construct: purchased Zedira T021
T2 sequence (O95932 1-706): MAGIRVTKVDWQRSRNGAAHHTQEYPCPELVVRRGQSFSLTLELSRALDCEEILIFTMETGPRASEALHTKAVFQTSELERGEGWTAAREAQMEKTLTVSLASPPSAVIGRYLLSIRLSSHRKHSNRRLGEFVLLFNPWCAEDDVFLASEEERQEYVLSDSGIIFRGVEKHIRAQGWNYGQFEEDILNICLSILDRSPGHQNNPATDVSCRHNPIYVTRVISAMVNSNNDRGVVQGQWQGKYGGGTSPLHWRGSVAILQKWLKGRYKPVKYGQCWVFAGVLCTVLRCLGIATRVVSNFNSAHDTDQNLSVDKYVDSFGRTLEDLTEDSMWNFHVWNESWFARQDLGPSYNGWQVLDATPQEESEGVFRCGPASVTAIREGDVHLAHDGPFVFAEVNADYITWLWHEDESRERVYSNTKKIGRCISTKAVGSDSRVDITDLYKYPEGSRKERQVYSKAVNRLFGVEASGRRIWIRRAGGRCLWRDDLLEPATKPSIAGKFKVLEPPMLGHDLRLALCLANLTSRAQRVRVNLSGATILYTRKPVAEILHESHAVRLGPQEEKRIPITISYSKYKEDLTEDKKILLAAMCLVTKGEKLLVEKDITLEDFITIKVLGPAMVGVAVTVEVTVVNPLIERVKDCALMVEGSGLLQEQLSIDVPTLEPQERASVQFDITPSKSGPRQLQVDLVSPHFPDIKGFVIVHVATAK
Source text: as §1, §2, §3, §4

TG3 (transglutaminase 3) = target: T3, TG3 (transglutaminase 3) (Homo sapiens, UniProt Q08188); assay: Comparative transglutaminase selectivity assay with casein and dansylcadaverine as substrates: TG3; settings: casein as substrate
T3 construct: purchased Zedira T012
T3 sequence (Q08188 1-693): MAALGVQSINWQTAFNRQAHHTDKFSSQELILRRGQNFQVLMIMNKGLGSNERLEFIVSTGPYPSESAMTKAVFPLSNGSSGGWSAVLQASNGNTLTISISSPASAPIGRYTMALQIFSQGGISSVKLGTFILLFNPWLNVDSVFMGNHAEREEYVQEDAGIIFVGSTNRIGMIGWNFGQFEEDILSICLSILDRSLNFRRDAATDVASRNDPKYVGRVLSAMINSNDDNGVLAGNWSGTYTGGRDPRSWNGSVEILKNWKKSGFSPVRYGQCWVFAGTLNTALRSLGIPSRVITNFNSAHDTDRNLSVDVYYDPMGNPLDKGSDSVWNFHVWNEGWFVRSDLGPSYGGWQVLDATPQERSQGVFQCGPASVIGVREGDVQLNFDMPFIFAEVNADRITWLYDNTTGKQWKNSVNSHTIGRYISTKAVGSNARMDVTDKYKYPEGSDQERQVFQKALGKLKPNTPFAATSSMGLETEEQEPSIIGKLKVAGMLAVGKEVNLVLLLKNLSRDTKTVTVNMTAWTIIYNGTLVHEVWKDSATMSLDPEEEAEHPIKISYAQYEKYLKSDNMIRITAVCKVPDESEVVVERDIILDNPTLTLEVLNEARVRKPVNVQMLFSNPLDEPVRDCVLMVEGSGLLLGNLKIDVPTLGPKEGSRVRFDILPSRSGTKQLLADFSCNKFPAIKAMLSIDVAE
Source text: as §1, §2, §3, §4

SMILES: CCOC(=O)/C=C/CC[C@H](NC(=O)c1cncn1C)C(=O)Nc1cccn(CC(=O)NCCC(C)C)c1=O [A19, (S,E)-Ethyl 7-(1-(2-(isopentylamino)-2-oxoethyl)-2-oxo-1,2-dihydropyridin-3-ylamino)-6-(1-methyl-1H-imidazole-5-carboxamido)-7-oxohept-2-enoate]
- pIC50 [1]: 5.62
- pIC50 (TG6 (transglutaminase 6)): 4.27
- pIC50 (TG3 (transglutaminase 3)): 3.89

SMILES: CCOC(=O)/C=C/CC[C@H](NC(C)=O)C(=O)Nc1cccn(CC(=O)NCCC(C)C)c1=O [A7, (S,E)-Ethyl 6-acetamido-7-(1-(2-(isopentylamino)-2-oxoethyl)-2-oxo-1,2-dihydropyridin-3-ylamino)-7-oxohept-2-enoate]
- pIC50 [1]: 5.44
- pIC50 (TG6 (transglutaminase 6)): 4.29
- pIC50 (TG3 (transglutaminase 3)): 4.08

SMILES: COC(=O)/C=C/CC[C@H](NC(C)=O)C(=O)Nc1cccn(CC(=O)NCCC(C)C)c1=O [A29, (S,E)-methyl 6-acetamido-7-(1-(2-(isopentylamino)-2-oxoethyl)-2-oxo-1,2-dihydropyridin-3-ylamino)-7-oxohept-2-enoate]
- pIC50 [1]: 6.40
- pIC50 (TG6 (transglutaminase 6)): 4.08
- pIC50 (TG3 (transglutaminase 3)): 4.15

SMILES: CCC(CC)CNC(=O)Cn1cccc(NC(=O)[C@H](CC/C=C/C(=O)OC)NC(C)=O)c1=O [A79, (S,E)-Methyl 6-acetamido-7-(1-(2-(2-ethylbutylamino)-2-oxoethyl)-2-oxo-1,2-dihydropyridin-3-ylamino)-7-oxohept-2-enoate]
- pIC50 [1]: 6.40
- pIC50 (TG6 (transglutaminase 6)): 4.32
- pIC50 (TG3 (transglutaminase 3)): 4.22

SMILES: CCOC(=O)/C=C/CC[C@H](NC(C)=O)C(=O)Nc1cccn(CC(=O)NCC(CC)CC)c1=O [A62, (S,E)-Ethyl 6-acetamido-7-(1-(2-(2-ethylbutylamino)-2-oxoethyl)-2-oxo-1,2-dihydropyridin-3-ylamino)-7-oxohept-2-enoate]
- pIC50 [1]: 5.71
- pIC50 (TG6 (transglutaminase 6)): 4.33
- pIC50 (TG3 (transglutaminase 3)): 4.00

SMILES: CCOC(=O)/C=C/CC[C@H](NC(=O)c1cncn1C)C(=O)Nc1cccn(CC(=O)NCC(CC)CC)c1=O [A58, (S,E)-Ethyl 7-(1-(2-(2-ethylbutylamino)-2-oxoethyl)-2-oxo-1,2-dihydropyridin-3-ylamino)-6-(1-methyl-1H-imidazole-5-carboxamido)-7-oxohept-2-enoate]
- pIC50 [1]: 5.81
- pIC50 (TG6 (transglutaminase 6)): 4.18
- pIC50 (TG3 (transglutaminase 3)): 3.96

SMILES: CCOC(=O)/C=C/CC[C@H](NC(=O)c1cncn1C)C(=O)Nc1cccn(CC(=O)N[C@H](C(=O)O)[C@H](C)CC)c1=O [A53, (2S,3R)-2-(2-(3-((S,E)-7-Ethoxy-2-(1-methyl-1H-imidazole-5-carboxamido)-7-oxohept-5-enamido)-2-oxopyridin-1(2H)-yl)acetamido)-3-methylpentanoic acid]
- pIC50 [1]: 6.08
- pIC50 (TG6 (transglutaminase 6)): 4.58
- pIC50 (TG3 (transglutaminase 3)): 4.14

SMILES: COC(=O)/C=C/CC[C@H](NC(C)=O)C(=O)Nc1cccn(CC(=O)N2CCC(C(F)(F)F)CC2)c1=O [A65, (S,E)-Methyl 6-acetamido-7-oxo-7-(2-oxo-1-(2-oxo-2-(4-(trifluoromethyl)piperidin-1-yl)ethyl)-1,2-dihydropyridin-3-ylamino)hept-2-enoate]
- pIC50 [1]: 5.54
- pIC50 (TG6 (transglutaminase 6)): 4.42
- pIC50 (TG3 (transglutaminase 3)): 4.00

SMILES: CCOC(=O)/C=C/CC[C@H](NC(C)=O)C(=O)Nc1cccn(CC(=O)NCCC(CC)CC)c1=O [A42, (S,E)-ethyl 6-acetamido-7-(1-(2-(3-ethylpentylamino)-2-oxoethyl)-2-oxo-1,2-dihydropyridin-3-ylamino)-7-oxohept-2-enoate]
- pIC50 [1]: 5.15
- pIC50 (TG6 (transglutaminase 6)): 4.44
- pIC50 (TG3 (transglutaminase 3)): 3.98

SMILES: CCOC(=O)/C=C/CC[C@H](NC(C)=O)C(=O)Nc1cccn(CC(=O)N[C@H](C(=O)OC)[C@H](C)CC)c1=O [A35, (S,E)-ethyl 6-acetamido-7-(1-(2-((2S,3R)-1-methoxy-3-methyl-1-oxopentan-2-ylamino)-2-oxoethyl)-2-oxo-1,2-dihydropyridin-3-ylamino)-7-oxohept-2-enoate]
- pIC50 [1]: 6.00
- pIC50 (TG6 (transglutaminase 6)): 4.67
- pIC50 (TG3 (transglutaminase 3)): 4.02
